{
  "source": "paper PMC7449170",
  "about": "“ATI-2173, a Novel Liver-Targeted Non-Chain-Terminating Nucleotide for Hepatitis B Virus Cure Regimens” (Antimicrobial Agents and Chemotherapy, 2020)",
  "key": {"herpes simplex virus 1": {"test_system": "herpes simplex virus 1", "assay": "Antiviral panel: herpes simplex virus 1", "assay_type": "cell-based", "settings": "up to 100 μM, data not shown"}, "HBV rtS202G+M204I": {"test_system": "HBV rtS202G+M204I", "assay": "microbe, parasite or virus in culture", "assay_type": "cell-based", "settings": "Hepatitis B virus, HepG2"}, "[1]": {"test_system": "human immunodeficiency virus 1", "assay": "Antiviral panel: human immunodeficiency virus 1", "assay_type": "cell-based", "settings": "up to 100 μM, data not shown"}, "HBV coreP25A": {"test_system": "HBV coreP25A", "assay": "microbe, parasite or virus in culture", "assay_type": "cell-based, Hepatitis B virus", "settings": "Hepatitis B virus, HepG2"}, "[2]": {"test_system": "HBV genotype E (AB091255)", "assay": "microbe, parasite or virus in culture", "assay_type": "cell-based", "settings": "Hepatitis B virus, HepG2"}, "HBV rtV173L+M204I": {"test_system": "HBV rtV173L+M204I", "assay": "microbe, parasite or virus in culture", "assay_type": "cell-based", "settings": "Hepatitis B virus, HepG2"}, "HBV coreT33N": {"test_system": "HBV coreT33N", "assay": "microbe, parasite or virus in culture", "assay_type": "cell-based, Hepatitis B virus", "settings": "Hepatitis B virus, HepG2"}, "HepG2 cells": {"test_system": "HepG2 cells", "assay": "Mitochondrial toxicity, glucose/galactose assay", "settings": "20 mM glucose or 10 mM galactose, up to 100 μM, day 11"}, "[3]": {"test_system": "HBV genotype C (AB246345)", "assay": "microbe, parasite or virus in culture", "assay_type": "cell-based", "settings": "Hepatitis B virus, HepG2"}, "[4]": {"test_system": "human bone marrow mononuclear cells", "assay": "Cytotoxicity in bone marrow mononuclear cells (CellTiter-Glo)", "settings": "at 100 μM or greater, 72 h", "quoted_text": "HK-2 human kidney cells were obtained from ATCC (Manassas, VA) and cultured in Gibco Keratinocyte serum-free medium (Thermo Fisher Scientific, Waltham, MA) supplemented with 10% FBS (Peak Serum, Wellington, CO). Human skeletal muscle cells were obtained from Lonza (Walkersville, MD) and cultured in SkGM-2 skeletal muscle cell growth medium-2 (Lonza). Both HK-2 and skeletal muscle cells were cultured humidified at 37°C and 5% CO2. Cryopreserved human primary hepatocytes and medium were received from Lonza. Cryopreserved iCell cardiomyocytes and cardiomyocyte medium were purchased from Stem Cell Technologies (Vancouver, BC, Canada). Cryopreserved human bone marrow mononuclear cells were purchased from Lonza with HemaTox Myeloid medium purchased from [sequence] […] All cryopreserved cells (human primary hepatocytes, iCell cardiomyocytes, and human bone marrow mononuclear cells) were stored in vapor phase liquid nitrogen until the day of plating. […] Serial dilutions of compounds in DMSO were as follows: 100, 10, 1, 0.1, 0.01, 0.001, 0.0001, and 0.00001 μM (final concentration of DMSO in medium was 0.5%).\nHK-2 and skeletal muscle cells were seeded into 96-well plates at 5,000 cells/well and incubated overnight at 37°C and 5% CO2. Human hepatocytes were thawed, diluted in hepatocyte plating medium (Lonza) and seeded into a 96-well, collagen-coated plates at 2.5 × 10^4 cells/well. Hepatocytes were incubated for 6 h at 37°C in 5% CO2, then the medium was aspirated and replaced with hepatocyte culture medium at 50 μl/well, and finally incubated overnight. The iCell cardiomyocytes were thawed, suspended in iCell thawing/plating medium, and plated at 4 × 10^4 cells/well in a gelatin-coated 96-well plate. iCells were incubated for 2 days at 37°C in 7% CO2. […]\nFollowing incubation, cells were dosed and incubated for 72 h at 37°C and 5% CO2. Following incubation, the endpoint cell viability CellTiter-Glo 2.0 assay (Promega, San Luis Obispo, CA) was performed and luminescence data collected on a Synergy 4 plate reader (Biotek, Winooski, VT). […]"}, "HBV rtN236T": {"test_system": "HBV rtN236T", "assay": "microbe, parasite or virus in culture", "assay_type": "cell-based", "settings": "Hepatitis B virus, HepG2"}, "[5]": {"test_system": "HBV genotype H (AB179747)", "assay": "microbe, parasite or virus in culture", "assay_type": "cell-based", "settings": "Hepatitis B virus, HepG2"}, "[6]": {"assay": "Pharmacokinetics and tissue concentration in rats after single oral dose", "assay_type": "in vivo, Sprague-Dawley rats", "settings": "single oral 50 mg/kg ATI-2173 vs 25 mg/kg clevudine", "experimental": "Female Sprague Dawley (SD) rats (from Envigo, NJ), 225 to 249 g, were used in the studies. Clevudine and ATI-2173 were administered by oral gavage (p.o.) in carboxyl methyl cellulose/PEG 400/Tween 20 (0.5%/20%/5%). The oral doses were administered at 25 mg/kg and 50 mg/kg, respectively. Blood samples were collected at 1, 2, 4, 6, 8, and 24 h into lithium-heparin microtainer tubes (BD). Plasma samples were prepared within 30 min after collection by centrifugation at 2,000× rcf for 10 min at 4°C and stored at –80°C before processing for analysis by liquid chromatography-tandem mass spectrometry (LC-MS/MS). Rat organs (skeletal muscle, liver, and heart) were collected from all rats immediately following blood collection at all time points. The tissues were immediately snap-frozen in liquid nitrogen and stored at –80°C before processing for analysis by LC-MS/MS. […]\nSamples were maintained at 4°C in a Leap Pal Autosampler (CTC Analytics AG, Zwingen, Switzerland). Plasma concentrations of ATI-2173 and clevudine were determined using qualified methods with an assay range of 10 to 1,000 ng/ml. […] QCs were prepared at 30, 500, and 900 ng/ml and were measured within ± 30% of actual values. […]\nTissue levels were measured according to qualified LC-MS/MS methods with an assay range of 18 to 18,000 ng/g of tissue. […]"}, "HBV genotype D (U955551)": {"test_system": "HBV genotype D (U955551)", "assay": "microbe, parasite or virus in culture", "assay_type": "cell-based", "settings": "Hepatitis B virus, HepG2"}, "HBV genotype D": {"test_system": "HBV genotype D", "assay": "microbe, parasite or virus in culture", "settings": "Hepatitis B virus, Hepatocyte, 192 h, read-out: EC50, HBV DNA", "quoted_text": "HBV genotype D was concentrated from HepDE19 culture supernatants (2.53 × 10^10 genome equivalents [GE]/ml) and provided by WuXi. On day 0, hepatocytes were seeded into a 48-well plate at a density of 1.32 × 10^5 cells/well. On day 1, hepatocytes were infected with 200 HBV GE/cell and were cultured at 37°C and 5% CO2. […] On day 8, the culture supernatants were collected and HBV DNA was harvested with QIAamp 96 DNA blood kit (Qiagen, 51162)."}, "[7]": {"assay": "Cell viability (CC50) in HepG2.2.15 cells", "settings": "human"}, "HBV": {"test_system": "HBV", "assay": "Serum shift of anti-HBV EC50", "assay_type": "cell-based, Hepatitis B virus", "settings": "data not shown"}},
  "data": [
    {"smiles": "Cc1cn(C2OC(COP(=O)(NC(C)C(=O)OC(C)C)Oc3ccccc3)C(O)C2F)c(=O)[nH]c1=O", "note": "(centres unmarked) [ATI-2173]", "values": [
      {"measurement": "Antiviral efficacy", "setting": "herpes simplex virus 1", "value": "no detectable efficacy"},
      {"measurement": "EC50", "setting": "HBV rtS202G+M204I", "value": "> 10000", "unit": "nM"},
      {"measurement": "Antiviral efficacy", "setting": "[1]", "value": "no detectable efficacy"},
      {"measurement": "EC50", "setting": "HBV coreP25A", "value": 537, "unit": "nM"},
      {"measurement": "EC50", "setting": "[2]", "value": 427, "unit": "nM"},
      {"measurement": "EC50", "setting": "HBV rtV173L+M204I", "value": "> 10000", "unit": "nM"},
      {"measurement": "EC50", "setting": "HBV coreT33N", "value": 338, "unit": "nM"},
      {"measurement": "Mitochondrial toxicity (cell viability in glucose versus galactose medium)", "setting": "HepG2 cells", "value": "no apparent mitochondrial toxicity"},
      {"measurement": "EC50", "setting": "[3]", "value": 227, "unit": "nM"},
      {"measurement": "Cytotoxicity", "setting": "[4]", "value": "Minimal cytotoxicity and mild"},
      {"measurement": "EC50", "setting": "HBV rtN236T", "value": 386, "unit": "nM"},
      {"measurement": "EC50", "setting": "[5]", "value": 718, "unit": "nM"},
      {"measurement": "Liver exposure to the 5′-triphosphate versus equimolar clevudine", "setting": "[6]", "value": "nearly identical liver exposure"},
      {"measurement": "EC50", "setting": "HBV genotype D (U955551)", "value": 234, "unit": "nM"},
      {"measurement": "EC50", "setting": "HBV genotype D", "value": 1.31, "unit": "nM"},
      {"measurement": "CC50", "setting": "[7]", "value": "> 10000", "unit": "nM"},
      {"measurement": "Serum shift in EC50", "setting": "HBV", "value": "no clear serum shift"}
    ]}
  ]
}
